According to ChEMBL document CHEMBL1201862, “PubChem BioAssay data set” (2004):
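Assay format: 96-well plates, 48-hour exposure. GI50 is the concentration that inhibits growth by half.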 The source made the active and inactive calls. No stated cut-off is given here; in the data, active = GI50 up to about 1.1 µM and inactive = higher.

Assays:
Experiment in all cases: growth of human tumour cells (NCI), 48 h
A498 = test system: A498
CAKI-1 = test system: CAKI-1
CCRF-CEM = test system: CCRF-CEM
DU-145 = test system: DU-145
HCT-15 = test system: HCT-15
HT-29 = test system: HT-29
KM12 = test system: KM12
LOX IMVI = test system: LOX IMVI
MDA-MB-435 = test system: MDA-MB-435
MDA-N = test system: MDA-N
Malme-3M = test system: Malme-3M
NCI-H522 = test system: NCI-H522
OVCAR-5 = test system: OVCAR-5
SF-539 = test system: SF-539
SK-MEL-28 = test system: SK-MEL-28
SK-MEL-5 = test system: SK-MEL-5
SN12C = test system: SN12C
U-251 = test system: U-251
UACC-62 = test system: UACC-62
UO-31 = test system: UO-31

| SMILES | GI50 (A498) | GI50 (CAKI-1) | GI50 (CCRF-CEM) | GI50 (DU-145) | GI50 (HCT-15) | GI50 (HT-29) | GI50 (KM12) | GI50 (LOX IMVI) | GI50 (MDA-MB-435) | GI50 (MDA-N) | GI50 (Malme-3M) | GI50 (NCI-H522) | GI50 (OVCAR-5) | GI50 (SF-539) | GI50 (SK-MEL-28) | GI50 (SK-MEL-5) | GI50 (SN12C) | GI50 (U-251) | GI50 (UACC-62) | GI50 (UO-31) |
| --- | --- | --- | --- | --- | --- | --- | --- | --- | --- | --- | --- | --- | --- | --- | --- | --- | --- | --- | --- | --- |
| COc1ccc(OC)c(CC2CCc3nc(N)nc(N)c3C2)c1 (stereo not given) | 23.1 µM (inactive) | 27.1 µM (inactive) | 0.515 µM (active) | 1.62 µM (inactive) | < 0.0435 µM | 6.68 µM (inactive) | 1.56 µM (inactive) | 0.0561 µM (active) | 12.6 µM (inactive) | < 0.01 µM (active) | 0.0334 µM (active) | 0.774 µM (active) | 0.51 µM (active) | 0.275 µM (active) | 18.8 µM (inactive) | < 0.019 µM (active) | 14.5 µM (inactive) | > 49.3 µM (inactive) | < 0.0133 µM (active) | 4.85 µM (inactive) |
| CC(C)(C)OC(=O)N/N=C(/N)Cc1ccccc1 | > 100 µM (inactive) | > 100 µM (inactive) | > 100 µM (inactive) | > 100 µM (inactive) | > 100 µM | > 100 µM (inactive) | > 100 µM (inactive) | > 100 µM (inactive) | > 100 µM (inactive) | > 100 µM (inactive) | > 100 µM (inactive) | > 100 µM (inactive) | > 100 µM (inactive) | > 100 µM (inactive) | > 100 µM (inactive) | > 100 µM (inactive) | > 100 µM (inactive) | > 100 µM (inactive) | > 100 µM (inactive) | > 100 µM (inactive) |
| O=[N+]([O-])C(C(Cl)=C(Cl)Cl)=C(N1CCOCC1)N1CCOCC1 | > 100 µM (inactive) | > 100 µM (inactive) | > 100 µM (inactive) | > 100 µM (inactive) | > 100 µM | > 100 µM (inactive) | > 100 µM (inactive) | > 100 µM (inactive) | > 100 µM (inactive) | > 100 µM (inactive) | 57.3 µM (inactive) | > 100 µM (inactive) | > 100 µM (inactive) | > 100 µM (inactive) | > 100 µM (inactive) | > 100 µM (inactive) | > 100 µM (inactive) | > 100 µM (inactive) | > 100 µM (inactive) | > 100 µM (inactive) |
| Clc1cccc(C2ON=C(c3ccccc3)N2C23CC4CC(CC(C4)C2)C3)c1Cl (stereo not given) | > 10 µM (inactive) | > 10 µM (inactive) | > 10 µM (inactive) | > 10 µM (inactive) | > 10 µM | > 10 µM (inactive) | > 10 µM (inactive) | > 10 µM (inactive) | > 10 µM (inactive) | > 10 µM (inactive) | > 10 µM (inactive) | > 10 µM (inactive) | > 10 µM (inactive) | > 10 µM (inactive) | > 10 µM (inactive) | > 10 µM (inactive) | > 10 µM (inactive) | > 10 µM (inactive) | > 10 µM (inactive) | 5.02 µM (inactive) |
| CCOC(=O)c1ccc(NCc2ccc3oc(=O)c(-c4ccccc4)nc3c2)cc1 | 61.1 µM (inactive) | 5.2 µM (inactive) | 3.46 µM (inactive) | 36.2 µM (inactive) | 81.5 µM | 57.4 µM (inactive) | > 100 µM (inactive) | 31.8 µM (inactive) | 16.2 µM (inactive) | 21.5 µM (inactive) | 18.8 µM (inactive) | 6.21 µM (inactive) | > 100 µM (inactive) | > 100 µM (inactive) | 30.7 µM (inactive) | 23.6 µM (inactive) | > 100 µM (inactive) | 61.2 µM (inactive) | > 100 µM (inactive) | 27 µM (inactive) |
| N/C(S)=N/N=C/c1ccc(N)cn1 | > 8.15 µM (inactive) | 3.78 µM (inactive) | 1.93 µM (inactive) | 2.75 µM (inactive) | 5.87 µM | 4.47 µM (inactive) | 6.22 µM (inactive) | 3.62 µM (inactive) | 5.9 µM (inactive) | > 6.59 µM (inactive) | 4.42 µM (inactive) | 3.63 µM (inactive) | 9.06 µM (inactive) | 0.404 µM (active) | > 10 µM (inactive) | 2.25 µM (inactive) | 3.92 µM (inactive) | 4.06 µM (inactive) | 3.19 µM (inactive) | 2.28 µM (inactive) |
| O=[N+]([O-])C(=C(Cl)Cl)C(Cl)=C(Cl)Cl | 3.63 µM (inactive) | 0.15 µM (active) | < 0.01 µM (active) | 8.85 µM (inactive) | 0.156 µM | 0.141 µM (active) | 1.85 µM (inactive) | < 0.0117 µM (active) | 0.314 µM (active) | 0.206 µM (active) | 0.0454 µM (active) | < 0.01 µM (active) | 2.02 µM (inactive) | 1.45 µM (inactive) | 0.105 µM (active) | 0.52 µM (active) | 0.497 µM (active) | 2.81 µM (inactive) | 0.433 µM (active) | 0.836 µM (active) |
